This passage reports Ki results from patent US9181230B2, “Morpholine compounds and uses thereof” (Hoffmann-La Roche Inc., priority 2013, dated 2015).

Structures can show the parent of a compound that is named as a salt.

For experiment [1], the target named is mouse TAAR1 (Mus musculus (Mouse), UniProt Q923Y8). Kind of experiment: Radioligand binding assay on mouse TAAR1. As to conditions: mouse TAAR1, membranes of HEK-293 cells, first value of the cell pair mouse/rat. As to the method:
(§1) For the construction of expression plasmids the coding sequences of human, rat and mouse TAAR 1 were amplified from genomic DNA essentially as described by Lindemann et al.. The Expand High Fidelity PCR System (Roche Diagnostics) was used with 1.5 mM Mg^2+ and purified PCR products were cloned into pCR2.1-TOPO cloning vector (Invitrogen) following the instructions of the manufacturer. PCR products were subcloned into the pIRESneo2 vector (BD Clontech, Palo Alto, Calif.), and expression vectors were sequence verified before introduction in cell lines.
(§2) HEK293 cells (ATCC # CRL-1573) were cultured essentially as described by Lindemann et al. (2005). For the generation of stably transfected cell lines HEK293 cells were transfected with the pIRESneo2 expression plasmids containing the TAAR coding sequences (described above) with Lipofectamine 2000 (Invitrogen) according to the instructions of the manufacturer, and 24 hrs post transfection the culture medium was supplemented with 1 mg/ml G418 (Sigma, Buchs, Switzerland). After a culture period of about 10 d clones were isolated, expanded and tested for responsiveness to trace amines (all compounds purchased from Sigma) with the cAMP Biotrak Enzyme immunoassay (EIA) System (Amersham) following the non-acetylation EIA procedure provided by the manufacturer.
(A) Radioligand Binding Assay on Mouse TAAR1
(§3) Membrane Preparation and Radioligand Binding.
(§4) HEK-293 cells stably expressing mouse TAAR1 were maintained at 37° C. and 5% CO2 in DMEM high glucose medium, containing fetal calf serum (10%, heat inactivated for 30 min at 56° C.), penicillin/streptomycin (1%), and 375 μg/ml geneticin (Gibco). Cells were released from culture flasks using trypsin/EDTA, harvested, washed twice with ice-cold PBS (without Ca^2+ and Mg^2+), pelleted at 1,000 rpm for 5 min at 4° C., frozen and stored at −80° C. Frozen pellets were suspended in 20 ml HEPES-NaOH (20 mM, pH 7.4) containing 10 mM EDTA and homogenized with a Polytron (PT 6000, Kinematica) at 14,000 rpm for 20 s. The homogenate was centrifuged at 48,000×g for 30 min at 4° C. Subsequently, the supernatant was removed and discarded, and the pellet resuspended in 20 ml HEPES-NaOH (20 mM, pH 7.4) containing 0.1 mM EDTA using the Polytron (20 s at 14,000 rpm). This procedure was repeated and the final pellet resuspended in HEPES-NaOH containing 0.1 mM EDTA and homogenized using the Polytron. Typically, aliquots of 2 ml membrane portions were stored at −80° C. With each new membrane batch the dissociation constant (Kd) was determined via a saturation curve. […] Nonspecific binding was defined as the amount of ^3[H]-(S)-4-[(ethyl-phenyl-amino)-methyl]-4,5-dihydro-oxazol-2-ylamine bound in the presence of 10 μM unlabeled ligand. All compounds were tested at a broad range of concentrations (10 pM to 10 μM) in duplicates. […] The 96 deep well plates were incubated for 1 hr at 4° C. Incubations were terminated by rapid filtration through Unifilter-96 plates (Packard Instrument Company) and glass filters GF/C (Perkin Elmer) presoaked for 1 hr in polyethylenimine (0.3%) and washed 3 times with 1 ml of cold binding buffer. After addition of 45 μl of Microscint 40 (PerkinElmer) the Unifilter-96 plate was sealed and after 1 hr the ratioactivity counted using a TopCount Microplate Scintillation Counter (Packard Instrument Company).

Experiment [2] has as its target rat TAAR1 (Rattus norvegicus (Rat), UniProt Q923Y9). The experiment is described as follows: Radioligand binding assay on rat TAAR1. As to conditions: rat TAAR1, membranes of HEK-293 cells, second value of the cell pair mouse/rat. As to the method: as §1, §2
(B) Radioligand Binding Assay on Rat TAAR1
as §3
as §4, with “rat” for “mouse”

mouse TAAR1, sequence (Q923Y8 whole entry): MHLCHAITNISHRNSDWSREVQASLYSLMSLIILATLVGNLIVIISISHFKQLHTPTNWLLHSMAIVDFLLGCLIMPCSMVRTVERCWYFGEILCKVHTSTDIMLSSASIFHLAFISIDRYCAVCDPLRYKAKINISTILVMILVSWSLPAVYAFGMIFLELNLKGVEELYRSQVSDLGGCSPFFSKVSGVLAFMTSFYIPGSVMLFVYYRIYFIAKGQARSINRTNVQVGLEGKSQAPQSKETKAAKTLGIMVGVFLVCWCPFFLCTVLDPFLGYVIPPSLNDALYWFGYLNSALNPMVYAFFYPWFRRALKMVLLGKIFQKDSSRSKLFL
rat TAAR1, sequence (Q923Y9 whole entry): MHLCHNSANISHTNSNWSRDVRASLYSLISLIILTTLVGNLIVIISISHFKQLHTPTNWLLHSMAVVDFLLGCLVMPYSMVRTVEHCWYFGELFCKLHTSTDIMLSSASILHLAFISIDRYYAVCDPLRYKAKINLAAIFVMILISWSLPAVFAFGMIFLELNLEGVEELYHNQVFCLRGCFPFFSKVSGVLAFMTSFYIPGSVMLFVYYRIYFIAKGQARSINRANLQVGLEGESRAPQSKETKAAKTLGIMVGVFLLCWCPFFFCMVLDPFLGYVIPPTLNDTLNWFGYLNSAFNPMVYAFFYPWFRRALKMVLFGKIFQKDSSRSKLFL

As to `FC(F)(F)c1cnc2[nH]c3ccc([C@@H]4CNCCO4)cc3c2c1` [Example 48, (R)-2-(3-(Trifluoromethyl)-9H-pyrido[2,3-b]indol-6-yl)morpholine hydrochloride], the results for the Ki in experiment [1] (hydrochloride) and in experiment [2] (hydrochloride) were 0.0081 µM and 0.0639 µM, respectively.
As for `Fc1ccc(-c2cc(-c3ccc([C@@H]4CNCCO4)cc3F)n[nH]2)cc1` [Example 41, (R)-2-(3-Fluoro-4-(5-(4-fluorophenyl)-1H-pyrazol-3-yl)phenyl)morpholine hydrochloride], the Ki in experiment [1] turned out to be 0.0011 µM; in experiment [2] it was 0.0043 µM.
For `Fc1ccc(-c2nnc(-c3ccc([C@H]4CNCCO4)cc3)o2)cc1` [Example 17, (S)-2-(4-(5-(4-Fluorophenyl)-1,3,4-oxadiazol-2-yl)phenyl)morpholine hydrochloride], in that order: 0.0032 µM and 0.229 µM.
For `N#Cc1ccc(-c2cc(-c3ccc([C@H]4CNCCO4)cc3)n[nH]2)cc1` [Example 28, (S)-4-(3-(4-(Morpholin-2-yl)phenyl)-1H-pyrazol-5-yl)benzonitrile hydrochloride], in that order: 0.001 µM and 0.0168 µM.
